Consider nine compounds from PubChem BioAssay AID1963830 (Molecular Pharmacology Branch, DTP, NCI, 2024).

Where “and” joins values, the source holds several entries; their conditions need not be identical. Equal values may be shown once.

The viability, T/C is the ratio of treated to control. What is called IC50 is the concentration that inhibits the measured activity by half.

This assay relates to 922993-354-T-J3-PDC complex spheroid viability. Put plainly: Anticancer human tumor 922993-354-T-J3-PDC patient-derived endometrial carcinoma cell line growth inhibition [POLQ]. Conditions: for viability, T/C: stronger effect = lower value. On the procedure: Multicellular complex tumor spheroid response to Polymerase (POL) inhibitors (novobiocin, ART-558, RP6685) in combination with a variety of drugs and investigational agents in selected tumor cell lines
The POL inhibitors (novobiocin, ART-558, and RP6685) were evaluated both individually and in combination with standard of care and investigational anticancer small molecules within a complex spheroid model of solid tumors. . Complex spheroids include a stromal component modeled by human endothelial cells (HUVEC) and fibroblasts modeled by human mesenchymal stem cells (MSCs). The concentration ranges selected for each drug and investigational agent were based upon clinically achievable concentrations if the clinical Cmax of the agent was known.
Compounds. The drugs and investigational agents: novobiocin (NSC847541), ART-558 (NSC835418), RP-6685 (NSC848927), peposertib (NSC802822), ceralasertib (NSC780249), elimusertib (NSC800525), camonsertib (NSC841442), AZD-1390 (NSC803789), olaparib (NSC753686), talazoparib (NSC767125), rucaparib (NSC756644), sotorasib (NSC818433), MRTX-1133 (NSC836407), SN-38 (NSC673596), topotecan (NSC609699), epotoside (NSC141540), doxorubicin (NSC123127), gemcitabine (NSC613327), 5-fluorouracil (NSC19893), paclitaxel (NSC125973), vemurafenib (NSC761431), MSA-2 (NSC828583), SN-011 (NSC837082), adavosertib (NSC754352), prexasertib (NSC758257), carboplatin (NSC241240) and oxaliplatin (NSC266046), were obtained from the National Cancer Institute (NCI) Developmental Therapeutics Program Chemical Repository (21). The FDA-approved anticancer drug set is available from the Developmental Therapeutics Program at https://dtp.cancer.gov/organization/dscb/obtaining/. […] The stock solutions were prepared in dimethyl sulfoxide (DMSO, Sigma-Aldrich, St. Louis, MO, cat. D2650), except for the platinum compounds which were prepared in saline (Quality Biological, Gaithersburg, MD, cat. 114-055-101), at 800-fold the tested concentration and stored at -70 degrees C prior to their use. All drugs and investigational agents were tested over a range starting from a high concentration at or near the clinical Cmax and decreasing in half-log increments. If the clinical Cmax for an agent had not been determined, the highest concentration tested was 10 microM, except for SN-38, which was tested at a high concentration of 1 microM.
Cell Culture. All cells were maintained in an incubator at 37 degrees C and 5% CO2 with 95% humidity. The PDC lines were cultured according to standard operating procedures established by the NCI PDMR (https://pdmr.cancer.gov). Table 3 of the manuscript, lists the cell lines along with the number of the three cell types plated to form the mct-spheroids and media for tumor cell growth. After thawing, all PDC lines, except 997537-175-T-J1-PDC and 415267-285-R-J2-PDC, were cultured in Matrigel-coated flasks prepared with a working solution of 1X Ham's F-12 nutrient mix, without supplementation (Thermo Fisher Scientific, cat. 11765054), 100 U/mL penicillin-streptomycin (Thermo Fisher Scientific, cat. 15140122), and 2.5% Matrigel (Corning Inc., Corning, NY, cat. 354248) for the first three passages. The two PDC lines 997537-175-T-J1-PDC and 415267-285-R-J2-PDC were cultured on uncoated flasks. The 857933-349-R-J2-PDC line was cultured in 6C/Colon 1B media containing advanced DMEM/F-12 (Thermo Fisher Scientific, cat. 12634028), 10 mM HEPES (Thermo Fisher Scientific, cat. 15630080), 1X GlutaMAX supplement (Thermo Fisher Scientific, cat. 35050061), 0.1 mg/mL primocin (InvivoGen, San Diego, CA, cat. ant-pm-2), 10% defined fetal bovine serum, heat inactivated (HyClone Laboratories Inc., Logan, UT, cat. SH30070.03HI), 50% L-WRN conditioned media (ATCC, cat. CRL-3276), 1.25 mM N-Acetyl-L-cysteine (Sigma-Aldrich, cat. A9165), 10 mM nicotinamide (Sigma-Aldrich, cat. N0636), 1X B-27 supplement (Thermo Fisher Scientific, cat. 17504044), 1X N-2 supplement (Thermo Fisher Scientific, cat. […]
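Note: spheroids exposed to the agents for one week.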
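Throughout, for viability, T/C: 100% = DMSO vehicle control wells.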

Turning to `C#Cc1c(F)ccc2cc(O)cc(-c3ncc4c(N5CC6CCC(C5)N6)nc(OCC56CCCN5CC(F)C6)nc4c3F)c12` (stereo not drawn), the viability, T/C (compound 0.0316 µM) was 108% and 107% and 101%; the viability, T/C (compound 0.1 µM) is 95.9% and 99.1% and 99.3%; the viability, T/C (compound 0.316 µM) is 97.7% and 108% and 93.2%; the viability, T/C (compound 1 µM) was 110% and 99.2% and 95%; the viability, T/C (compound 3.16 µM) was 96% and 102% and 92.8%; the viability, T/C (compound 10 µM) is 98.1% and 99.6% and 90.1%. Also, where the note is “curve of compound”, the IC50 is over 10000 nM.

As for `C=CC(=O)N1CCN(c2nc(=O)n(-c3c(C)ccnc3C(C)C)c3nc(-c4c(O)cccc4F)c(F)cc23)C(C)C1` (stereo not drawn), the viability, T/C reads like this: (compound 0.0316 µM) 107% and 106% and 97.9%; (compound 0.1 µM) 93.5% and 101% and 94.9%; (compound 0.316 µM) 96% and 106% and 92.7%; (compound 1 µM) 104% (2×) and 107%; (compound 3.16 µM) 105% and 104% and 97.4%; (compound 10 µM) 98.8% and 106% and 75%. Also, the IC50 (curve of compound) was over 10000 nM.

For the compound `CC(C)n1c(=O)n(C)c2cnc3cc(F)c(-c4ccc(OCCCN5CCCCC5)nc4)cc3c21`, the viability, T/C runs as follows: (compound 0.0316 µM) 109% and 101% and 100%; (compound 0.1 µM) 103% and 94.2% and 94%; (compound 0.316 µM) 107% and 99.9% and 97.4%; (compound 1 µM) 99.4% and 95.3% and 105%; (compound 3.16 µM) 90% and 92.7% and 83.1%; (compound 10 µM) 63.3% and 83% and 68%. Moreover, under “curve of compound”, the IC50 was over 10000 nM.

As to `CC1COCCN1c1cc(C2(O)CC3CCC(C2)O3)c2cnn(-c3ccn[nH]3)c2n1` (stereo not drawn), the viability, T/C reads like this: (compound 0.0316 µM) 91% and 98.1% and 100%; (compound 0.1 µM) 90.2% and 88.6% and 96.7%; (compound 0.316 µM) 54.3% and 58.2% and 96.7%; (compound 1 µM) 25.7% and 28.6% and 63.1%; (compound 3.16 µM) 9.69% and 10.5% and 42.5%; (compound 10 µM) 10.9% and 8.97% and 19.9%. The IC50 (curve of compound) is 399 nM and 441 nM and 2040 nM.

Consider `CCc1cc2c(N3CCc4c(cc(Cn5ccnc5)cc4-c4cn(C)nc4C(F)(F)F)C3=O)cc(C)nc2c(OC)n1`, for which the viability, T/C by setting is: (compound 0.0316 µM) 93.1% and 105% and 99.3%; (compound 0.1 µM) 106% and 104% and 101%; (compound 0.316 µM) 98% and 103% and 106%; (compound 1 µM) 108% and 107% and 106%; (compound 3.16 µM) 99.3% and 102% and 104%; (compound 10 µM) 71.7% and 94.3% and 102%. Moreover, where the note is “curve of compound”, the concentration for half-maximal inhibition (IC50) was over 10000 nM.

With `CCc1cc2c(N3CCc4c(cc(Cn5ccnc5)cc4-c4cn(C)nc4C(F)(F)F)C3=O)ccnc2c(OC)n1`, the viability, T/C (compound 0.0316 µM) was 109% and 106% and 102%; the viability, T/C (compound 0.1 µM) was 94.3% and 98% and 103%; the viability, T/C (compound 0.316 µM) was 87.5% and 105% and 107%; the viability, T/C (compound 1 µM) was 107%; the viability, T/C (compound 3.16 µM) is 91.8% and 108% and 103%; the viability, T/C (compound 10 µM) is 80.9% and 97.6% and 101%. Further, under “curve of compound”, the 50% inhibitory concentration (IC50) was over 10000 nM.

For `COc1cc2cc(C(=O)CCC(=O)O)sc2cc1OC`, the viability, T/C (compound 0.0316 µM) was 106% (2×) and 103%; the viability, T/C (compound 0.1 µM) is 100% and 98.9% and 101%; the viability, T/C (compound 0.316 µM) is 108% and 102% and 98.9%; the viability, T/C (compound 1 µM) was 99.2% and 104% (2×); the viability, T/C (compound 3.16 µM) was 106% and 105% and 116%; the viability, T/C (compound 10 µM) was 85.2% and 83.3% and 64.8%. Besides, the half-maximal inhibitory concentration (IC50) (curve of compound) is over 10000 nM.

As for `O=C(Nc1ccc(O)c(NS(=O)(=O)c2ccc(F)cc2)c1)c1ccc(-c2ccccc2)cc1`, the viability, T/C was 108% and 103% and 104% (compound 0.0316 µM); 106% and 103% and 91.7% (compound 0.1 µM); 104% and 99.2% and 89.1% (compound 0.316 µM); 99.6% and 101% and 99.3% (compound 1 µM); 108% and 105% and 96.4% (compound 3.16 µM); 112% and 101% and 90.3% (compound 10 µM). In addition, the IC50 (curve of compound) was over 10000 nM.

As for `CC1COCCN1c1cc(-c2ccnn2C)c2ccnc(-c3ccn[nH]3)c2n1` (stereo not drawn) + COC1C(OC(N)=O)C(O)C(Oc2ccc3c(O)c(NC(=O)c4ccc(O)c(CC=C(C)C)c4)c(=O)oc3c2C)OC1(C)C, the IC50 by setting is: (curve of first compound, second compound 0.0316 µM) 121 nM; (curve of first compound, second compound 0.1 µM) 185 nM; (curve of first compound, second compound 0.316 µM) 172 nM; (curve of first compound, second compound 1 µM) 152 nM; (curve of first compound, second compound 3.16 µM) 143 nM; (curve of first compound, second compound 10 µM) 117 nM. The viability, T/C runs as follows: (second compound 0.0316 µM, first compound 0.0316 µM) 83.5%; (second compound 0.0316 µM, first compound 0.1 µM) 54.2%; (second compound 0.0316 µM, first compound 0.316 µM) 27.8%; (second compound 0.0316 µM, first compound 1 µM) 11.2%; (second compound 0.0316 µM, first compound 3.16 µM) 10.4%; (second compound 0.0316 µM, first compound 10 µM) 11.8%. Also, the viability, T/C was 94.4% (second compound 0.1 µM, first compound 0.0316 µM); 69.9% (second compound 0.1 µM, first compound 0.1 µM); 33.7% (second compound 0.1 µM, first compound 0.316 µM); 9.37% (second compound 0.1 µM, first compound 1 µM); 8.43% (second compound 0.1 µM, first compound 3.16 µM); 10.4% (second compound 0.1 µM, first compound 10 µM). Moreover, the viability, T/C was 95.1% (second compound 0.316 µM, first compound 0.0316 µM); 68.4% (second compound 0.316 µM, first compound 0.1 µM); 29.5% (second compound 0.316 µM, first compound 0.316 µM); 12.7% (second compound 0.316 µM, first compound 1 µM); 9.09% (second compound 0.316 µM, first compound 3.16 µM); 11.2% (second compound 0.316 µM, first compound 10 µM). In addition, the viability, T/C reads like this: (second compound 1 µM, first compound 0.0316 µM) 78.6%; (second compound 1 µM, first compound 0.1 µM) 55.4%; (second compound 1 µM, first compound 0.316 µM) 39.7%; (second compound 1 µM, first compound 1 µM) 10.2%; (second compound 1 µM, first compound 3.16 µM) 8.85%; (second compound 1 µM, first compound 10 µM) 10.6%. The viability, T/C was 89.9% (second compound 3.16 µM, first compound 0.0316 µM); 60% (second compound 3.16 µM, first compound 0.1 µM); 27.9% (second compound 3.16 µM, first compound 0.316 µM); 9.41% (second compound 3.16 µM, first compound 1 µM); 7.96% (second compound 3.16 µM, first compound 3.16 µM); 11.8% (second compound 3.16 µM, first compound 10 µM). The viability, T/C is 82% (second compound 10 µM, first compound 0.0316 µM); 53.3% (second compound 10 µM, first compound 0.1 µM); 26.8% (second compound 10 µM, first compound 0.316 µM); 8.03% (second compound 10 µM, first compound 1 µM); 9.82% (second compound 10 µM, first compound 3.16 µM); 10.7% (second compound 10 µM, first compound 10 µM).
